The values that follow come from patent US20100137398A1, “USE OF HDAC INHIBITORS FOR THE TREATMENT OF GASTROINTESTINAL CANCERS” (NOVARTIS AG, priority 2007, published 2010).

For this experiment, the system named is Colo205 colon cancer xenograft. The experiment can be described thus: Colo205 colon cancer xenograft model, tumor growth inhibition and delay. It counts as in vivo, Female athymic nude mice. The settings on record: LBH589 30 mg/kg iv Mon/Wed/Fri for 3 weeks, 5-FU 75 mg/kg ip once a week for 3 weeks, or both. As for the experimental part: Female athymic nude mice-were implanted subcutaneously with Col6205 colon cancer cells. When tumors reached a medan tumor volume of 220 mm3, mice were randomized into groups of 10 mice. Mice were treated with LBH589 at 30 mg/kg intravenously on Monday, Wednesday, Friday per week for 3 weeks, 75 mg/kg of 5-Fluorouracil intraperitoneally once a week for 3 weeks, or combination of the two agents. For tumor growth inhibition (FIG. 2A), compound activity was measured as the percent change in tumor volume of treated animals over control animals (% T/C). The percentage of regression was determined as the percent change in the final tumor volume at the end of the study over the starting tumor volume. For tumor growth delay (FIG. 2B), compound activity was measured as the change in median calculated time to the study end point (TTE), which was predefined as tumor volume of 1000 mm^3.

On to `O=c1[nH]cc(F)c(=O)[nH]1` [5-FU, 5-Fluorouracil, reference compound], for which the “tumor growth inhibition (TGI) and tumor growth delay (TGD)” value is “led to tumor growth inhibition (TGI) and tumor growth delay (TGD)”. In addition, under “vehicle 39.5 days”, the “Median TTE (time to study end point, tumor volume of 1000 mm^3)” value is on record as 44.5 days.
